Measurements from BindingDB's records for doi:10.1021/acschembio.6b01129 (Promega Biosciences LLC, 2017).
Counter-ions that a name gives are not always drawn.

Biological target: Oplophorus-luciferin 2-monooxygenase catalytic subunit (Oplophorus gracilirostris, UniProt Q9GV45)
Assay: NanoLuc Inhibition Assay
Method: NanoLuc enzyme was diluted to 0.4 ng/mL in CO2 independent media + 10% FBS to make the detection reagent. A 3× dilution series of each inhibitor was then made in the detection reagent. A "no inhibitor" control was also made for each sample. A total of 50 μL of each inhibitor dilution was mixed with 50 μL of NanoGlo buffer containing 20 μM furimazine (final furimazine concentration is 10 μM, which is atKM), and luminescence was measured. Each sample was normalized to the "no inhibitor" control.

Sequence of Oplophorus-luciferin 2-monooxygenase catalytic subunit (Q9GV45 whole entry): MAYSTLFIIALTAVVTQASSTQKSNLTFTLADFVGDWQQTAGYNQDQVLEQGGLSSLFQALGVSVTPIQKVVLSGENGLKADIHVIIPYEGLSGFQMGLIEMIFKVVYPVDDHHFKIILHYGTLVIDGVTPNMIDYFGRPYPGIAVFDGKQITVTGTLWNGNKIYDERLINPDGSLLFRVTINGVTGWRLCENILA

SMILES	IC50 [µM]
CCN(C(=O)Cn1c(C(=O)N[C@H]2CC[C@H](C(=O)NCCCCCCNC(=O)[C@H](CC(=O)O)NC(=O)[C@H](CC(=O)O)NC(=O)[C@H](CC(=O)O)NC(C)=O)CC2)cc2sccc21)c1cccc(C)c1 [(11S,14S,17S)-17-Acetamido-11,14-bis(carboxymethyl)-1-(trans-4-(4-(2-(ethyl(m-tolyl)amino)2-oxoethyl)-4H-thieno[3,2-b]pyrrole-5-carboxamido)cyclohexyl)-1,10,13,16-tetraoxo-2,9,12,15tetraazanonadecan-19-oic acid (46)]	0.066
CCOC(=O)Cc1ccc(NC(=O)c2cc3sccc3n2CC(=O)N(CC)c2cccc(C)c2)cc1 [Ethyl 2-(4-(4-(2-(ethyl(m-tolyl)amino)-2-oxoethyl)-4H-thieno[3,2-b]pyrrole-5carboxamido)phenyl)acetate (12)]	4.7
CCN(C(=O)Cn1c(C(=O)Nc2cccc(C(=O)OC)c2)cc2sccc21)c1cccc(C)c1 [Methyl 3-(4-(2-(ethyl(m-tolyl)amino)-2-oxoethyl)-4H-thieno[3,2-b]pyrrole-5carboxamido)benzoate (11)]	10.7
CCc1cccc(N(CC)C(=O)Cn2c(C(=O)N[C@H]3CC[C@H](C(=O)OC)CC3)cc3ccccc32)c1 [Methyl trans-4-(1-(2-(ethyl(3-ethylphenyl)amino)-2-oxoethyl)-1H-indole-2carboxamido)cyclohexane-1-carboxylate (33)]	0.0054
CCN(C(=O)Cn1c(C(=O)N[C@H]2CC[C@H](C(=O)OC)CC2)cc2ccccc21)c1cccc(C)c1 [Methyl trans-4-(1-(2-(ethyl(m-tolyl)amino)-2-oxoethyl)-1H-indole-2-carboxamido)cyclohexane1-carboxylate (29)]	0.036
CCN(C(=O)Cn1cccc1C(=O)N[C@H]1CC[C@H](C(=O)OC)CC1)c1cccc(C)c1 [Methyl trans-4-(1-(2-(ethyl(m-tolyl)amino)-2-oxoethyl)-1H-pyrrole-2carboxamido)cyclohexane-1-carboxylate (28)]	7.7
CCN(C(=O)Cn1c(C(=O)N[C@H]2CC[C@H](C(=O)OC)CC2)cc2ccc(OC)cc21)c1cccc(C)c1 [Methyl trans-4-(1-(2-(ethyl(m-tolyl)amino)-2-oxoethyl)-6-methoxy-1H-indole-2carboxamido)cyclohexane-1-carboxylate (30)]	3.4
COC(=O)[C@H]1CC[C@H](NC(=O)c2cc3sccc3n2CC(=O)N2CCCc3cc(C)ccc32)CC1 [Methyl trans-4-(4-(2-(6-methyl-3,4-dihydroquinolin-1(2H)-yl)-2-oxoethyl)-4Hthieno[3,2-b]pyrrole-5-carboxamido)cyclohexane-1-carboxylate (21)]	20.2
CCN(C(=O)Cn1c(C(=O)N[C@H]2CC[C@H](C(=O)NCCCCCCNC(=O)c3ccc4c(c3)C3(OC4)c4ccc(O)cc4Oc4cc(O)ccc43)CC2)cc2sccc21)c1cccc(C)c1 [N-(trans-4-((6-(3',6'-dihydroxy-3-oxo-3H-spiro[isobenzofuran-1,9'-xanthene]-5(6)carboxamido)hexyl)carbamoyl)cyclohexyl)-4-(2-(ethyl(m-tolyl)amino)-2-oxoethyl)-4Hthieno[3,2-b]pyrrole-5-carboxamide (47)]	0.049
COCCOCCN(C(=O)Cn1c(C(=O)NC2CCCCC2)cc2sccc21)c1cccc(C)c1 [N-cyclohexyl-4-(2-((2-(2-methoxyethoxy)ethyl)(m-tolyl)amino)-2-oxoethyl)-4H-thieno[3,2b]pyrrole-5-carboxamide (14)]	16.5
CCCCCCN(C(=O)Cn1c(C(=O)NC2CCCCC2)cc2sccc21)c1cccc(C)c1 [N-cyclohexyl-4-(2-(hexyl(m-tolyl)amino)-2-oxoethyl)-4H-thieno[3,2-b]pyrrole-5-carboxamide (16)]	5.6
Cc1cccc(NC(=O)Cn2c(C(=O)NC3CCCCC3)cc3sccc32)c1 [N-cyclohexyl-4-(2-oxo-2-(m-tolylamino)ethyl)-4H-thieno[3,2-b]pyrrole-5-carboxamide (13)]	45.2
CCN(C(=O)Cn1c(C(=O)N2CCCCC2)cc2sccc21)c1cccc(C)c1 [N-ethyl-2-(5-(piperidine-1-carbonyl)-4H-thieno[3,2-b]pyrrol-4-yl)-N-(m-tolyl)acetamide (7)]	2.6
CCN(C(=O)Cn1c(C(=O)N2CCCC2)cc2sccc21)c1cccc(C)c1 [N-ethyl-2-(5-(pyrrolidine-1-carbonyl)-4H-thieno[3,2-b]pyrrol-4-yl)-N-(m-tolyl)acetamide (6)]	1.2

Continued, values first:

IC50 [µM]	SMILES
0.13	CCN(C(=O)Cn1c(C(=O)N[C@H]2CC[C@H](C(=O)OC)CC2)cc2sccc21)c1cccc(C(C)C)c1 (mixture of isomers) [Methyl trans-4-(4-(2-(ethyl(3-isopropylphenyl)amino)-2-oxoethyl)-4H-thieno[3,2-b]pyrrole-5carboxamido)cyclohexane-1-carboxylate (23)]
0.16	CCCCCCNC(=O)C1CCC(NC(=O)c2cc3sccc3n2CC(=O)N(CC)c2cccc(C)c2)CC1 (trans isomer) [4-(2-(Ethyl(m-tolyl)amino)-2-oxoethyl)-N-(trans-4-(hexylcarbamoyl)cyclohexyl)-4H-thieno[3,2b]pyrrole-5-carboxamide (38)]
0.89	CCN(C(=O)Cn1c(C(=O)NC2CCC(C(=O)NCCCC(=O)O)CC2)cc2sccc21)c1cccc(C)c1 (trans isomer) [4-(trans-4-(4-(2-(Ethyl(m-tolyl)amino)-2-oxoethyl)-4H-thieno[3,2-b]pyrrole-5carboxamido)cyclohexane-1-carboxamido)butanoic acid (37)]
17.8	CCN(C(=O)Cn1c(C(=O)NC2CCC(C(=O)NCCN(C)C)CC2)cc2sccc21)c1cccc(C)c1 (trans isomer) [N-(trans-4-((2-(dimethylamino)ethyl)carbamoyl)cyclohexyl)-4-(2-(ethyl(m-tolyl)amino)-2oxoethyl)-4H-thieno[3,2-b]pyrrole-5-carboxamide (36)]
0.071	CCN(C(=O)Cn1c(C(=O)NC2CCC(C(=O)NCCCCCCS(=O)(=O)O)CC2)cc2sccc21)c1cccc(C)c1 (trans isomer) [Sodium 6-(trans-4-(4-(2-(ethyl(m-tolyl)amino)-2-oxoethyl)-4H-thieno[3,2-b]pyrrole-5carboxamido)cyclohexane-1-carboxamido)hexane-1-sulfonate (43)]
0.83	CCN(C(=O)Cn1c(C(=O)NC2CCC(C(=O)NCCO)CC2)cc2sccc21)c1cccc(C)c1 (stereo not drawn) [4-(2-(Ethyl(m-tolyl)amino)-2-oxoethyl)-N-(trans-4-((2-hydroxyethyl)carbamoyl)cyclohexyl)-4Hthieno[3,2-b]pyrrole-5-carboxamide (35)]
0.03	CCN(C(=O)Cn1c(C(=O)NC2CCC(C(=O)NCCCCCCO)CC2)cc2sccc21)c1cccc(C)c1 (stereo not drawn) [4-(2-(Ethyl(m-tolyl)amino)-2-oxoethyl)-N-(trans-4-((6-hydroxyhexyl)carbamoyl)cyclohexyl)4H-thieno[3,2-b]pyrrole-5-carboxamide (39)]
0.094	CCN(C(=O)Cn1c(C(=O)NC2CCC(C(=O)NCCCCCC(=O)O)CC2)cc2sccc21)c1cccc(C)c1 (stereo not drawn) [6-(trans-4-(4-(2-(Ethyl(m-tolyl)amino)-2-oxoethyl)-4H-thieno[3,2-b]pyrrole-5carboxamido)cyclohexane-1-carboxamido)hexanoic acid (41)]
0.031	CCN(C(=O)Cn1c(C(=O)NC2CCC(C(=O)NCCCCCCCC(=O)O)CC2)cc2sccc21)c1cccc(C)c1 (stereo not drawn) [8-(trans-4-(4-(2-(Ethyl(m-tolyl)amino)-2-oxoethyl)-4H-thieno[3,2-b]pyrrole-5carboxamido)cyclohexane-1-carboxamido)octanoic acid (42)]
0.24	CCN(C(=O)Cn1c(C(=O)N[C@H]2CC[C@H](C(=O)OC)CC2)cc2sccc21)c1cccc(C(N)=O)c1 [Methyl trans-4-(4-(2-((3-carbamoylphenyl)(ethyl)amino)-2-oxoethyl)-4H-thieno[3,2-b]pyrrole5-carboxamido)cyclohexane-1-carboxylate (27)]
0.59	CCN(C(=O)Cn1c(C(=O)N[C@H]2CC[C@H](C(=O)OC)CC2)cc2occc21)c1cccc(C)c1 [Methyl trans-4-(4-(2-(ethyl(m-tolyl)amino)-2-oxoethyl)-4H-furo[3,2-b]pyrrole-5carboxamido)cyclohexane-1-carboxylate (31)]
0.69	CCN(C(=O)Cn1c(C(=O)N[C@H]2CC[C@H](C(=O)OC)CC2)cc2sccc21)c1ccccc1C [Methyl trans-4-(4-(2-(ethyl(o-tolyl)amino)-2-oxoethyl)-4H-thieno[3,2-b]pyrrole-5carboxamido)cyclohexane-1-carboxylate (19)]
0.23	CCN(C(=O)Cn1c(C(=O)N[C@H]2CC[C@@H](C(=O)OC)CC2)cc2sccc21)c1cccc(C)c1 [Methyl-cis-4-(4-(2-(ethyl(m-tolyl)amino)-2-oxoethyl)-4H-thieno[3,2-b]pyrrole-5carboxamido)cyclohexane-1-carboxylate (9)]
0.063	CCN(C(=O)Cn1c(C(=O)NC2CCC(C(=O)NCCCCCCN)CC2)cc2sccc21)c1cccc(C)c1 (stereo not drawn) [N-(trans-4-((6-aminohexyl)carbamoyl)cyclohexyl)-4-(2-(ethyl(m-tolyl)amino)-2-oxoethyl)-4Hthieno[3,2-b]pyrrole-5-carboxamide hydrochloride (40)]
0.3	CCCCNC(=O)C1CCC(NC(=O)c2cc3sccc3n2CC(=O)N(CC)c2cccc(C)c2)CC1 (stereo not drawn) [N-(trans-4-(butylcarbamoyl)cyclohexyl)-4-(2-(ethyl(m-tolyl)amino)-2-oxoethyl)-4H-thieno[3,2b]pyrrole-5-carboxamide (34)]
0.15	CCN(C(=O)Cn1c(C(=O)N[C@H]2CC[C@H](C(=O)OC)CC2)cc2sccc21)c1cccc(C)c1 [trans-Methyl-4-(4-(2-(ethyl(m-tolyl)amino)-2-oxoethyl)-4H-thieno[3,2-b]pyrrole-5carboxamido)cyclohexane-1-carboxylate (8)]
